In PMC9304199, “A small molecule CFTR potentiator restores ATP‐dependent channel gating to the cystic fibrosis mutant G551D‐CFTR” (British Journal of Pharmacology, 2022) one finds EC50 and Emax data, which are given here for 2 compounds.

One assay has as its target F508del‐CFTR (Homo sapiens, UniProt P13569, DEL508-508). Nature of the assay: Ussing chamber apical Cl− current (ICl apical) in FRT epithelia expressing F508del‐CFTR. Type of assay: cell-based. More on the design: assays at Charles River Laboratories (ChanTest). As to conditions: for EC50: F508del‐CFTR FRT epithelia, lumacaftor (5 μM) rescued, ICl apical, 27°C, read-out: EC50 (μM) (95% CI). The procedure:
Ussing chamber studies to determine the concentration–response relationships of CFTR potentiators (Figure 1c–f) were performed at Charles River Laboratories (ChanTest) (Cleveland, OH, USA). For these studies, FRT cells were stably transfected with CFTR cDNAs with the F508del and G551D variants and the common polymorphism M470 (synthesised by System Biosciences, Palo Alto, CA, USA) using the Flp‐In™ system (Thermo Fisher Scientific, Waltham, MA, USA). The F508del‐CFTR cDNA contained the following differences from the canonical CFTR cDNA sequence (NCBI Accession Number NM_000492): del CTT (1521–1523) to delete F508; synonymous changes T > C (798), A > G (801), T > C (804) to remove a cryptic bacterial promoter; synonymous change T > C (1095); G > A (1408) to give M470 and was amplified using the primers 5′ […] 3′ and 5′ […] 3′. The G551D‐CFTR cDNA contained the following differences from the canonical CFTR cDNA sequence (NCBI Accession Number NM_000492): G > A (1652) to replace G551 with D551; synonymous changes T > C (798), A > G (801), T > C (804) to remove a cryptic bacterial promoter; synonymous change A > C (516); synonymous change T > C (1095); G > A (1408) to give M470 and was amplified using the primers 5′ […] 3′ and 5′ […] 3′. Using Kpn1 and Not1 restriction sites, the F508del‐ and G551D‐CFTR cDNAs were inserted into pcDNA5/FRT (Flp‐In™) (RRID:Addgene_31984). […]
To test the effects of CP‐628006 on CFTR Cl^− channels in the apical membrane of FRT epithelia, we permeabilized the basolateral membrane with amphotericin B (100 μM). After cancelling voltage offsets, we clamped transepithelial voltage at 0 mV and measured apical Cl^− current (ICl ^apical) continuously using a Physiologic Instruments VCC MC6/8 multichannel voltage/current clamp (Li et al., [2004]).

A further assay addresses G551D‐CFTR (Homo sapiens, UniProt P13569, G551D). As to the kind of experiment: Automated planar patch-clamp whole-cell Cl− currents in HEK cells. The assay is classed as cell-based. More on the design: expressed in transfected cells. As to conditions: for EC50: G551D‐CFTR HEK cells, whole-cell currents, automated electrophysiology, 23°C, read-out: EC50 (μM) (95% CI); for Emax: HEK293, read-out: Maximal effect (%) (95% CI). Here is the method:
For CFTR studies using automated electrophysiology and single-channel recording, we used baby hamster kidney (BHK) cells (RRID:CVCL_1915) and human embryonic kidney (HEK) 293 cells (RRID:CVCL_0045) stably expressing wild-type human CFTR and the CFTR variants F508del- and […] et al., [2002]; Xu et al., [2014]). […] HEK cells expressing CFTR variants were generated using the Flp-InTM system as described above for F508del- and G551D-CFTR-expressing FRT cells. They were cultured in Dulbecco's modified Eagle's medium (glucose, 1.5 g·L^-1; sodium pyruvate, 110 mg·L^-1) supplemented with 10% FBS (PAA Laboratories), GlutaMAXTM and hygromycin-B (150 μg·ml^-1; InvitrogenTM, Thermo Fisher Scientific) at 37°C in a humidified atmosphere with 5% CO2. Prior to study, F508del-CFTR expressed in HEK cells was trafficked to the plasma membrane by low temperature incubation (27°C for 24-72 h). The single-channel behaviour of human CFTR in excised membrane patches from different mammalian cell lines heterologously expressing CFTR is equivalent (wild-type CFTR, Chen et al., [2009]; F508del-CFTR, Bose et al., [2019]; and G551D-CFTR, J Liu, Y Wang, Z Cai, and DN Sheppard, unpublished observations). […] The continuous lines are the fit of sigmoidal concentration-response functions to mean data. […] (Figure S2D: Normality Test (Shapiro-Wilk), P = 0.124 (passed); Equal Variance Test (Brown-Forsythe), P = 0.092 (passed)). Click here for additional data file.
A general note: In patch-clamp work, channel activity is measured electrically.

Structures are written as SMILES. A value given as a limit tells only on which side of the number the result lay.

Sequence of F508del‐CFTR (P13569 with tags, fused parts or gaps DEL508-508): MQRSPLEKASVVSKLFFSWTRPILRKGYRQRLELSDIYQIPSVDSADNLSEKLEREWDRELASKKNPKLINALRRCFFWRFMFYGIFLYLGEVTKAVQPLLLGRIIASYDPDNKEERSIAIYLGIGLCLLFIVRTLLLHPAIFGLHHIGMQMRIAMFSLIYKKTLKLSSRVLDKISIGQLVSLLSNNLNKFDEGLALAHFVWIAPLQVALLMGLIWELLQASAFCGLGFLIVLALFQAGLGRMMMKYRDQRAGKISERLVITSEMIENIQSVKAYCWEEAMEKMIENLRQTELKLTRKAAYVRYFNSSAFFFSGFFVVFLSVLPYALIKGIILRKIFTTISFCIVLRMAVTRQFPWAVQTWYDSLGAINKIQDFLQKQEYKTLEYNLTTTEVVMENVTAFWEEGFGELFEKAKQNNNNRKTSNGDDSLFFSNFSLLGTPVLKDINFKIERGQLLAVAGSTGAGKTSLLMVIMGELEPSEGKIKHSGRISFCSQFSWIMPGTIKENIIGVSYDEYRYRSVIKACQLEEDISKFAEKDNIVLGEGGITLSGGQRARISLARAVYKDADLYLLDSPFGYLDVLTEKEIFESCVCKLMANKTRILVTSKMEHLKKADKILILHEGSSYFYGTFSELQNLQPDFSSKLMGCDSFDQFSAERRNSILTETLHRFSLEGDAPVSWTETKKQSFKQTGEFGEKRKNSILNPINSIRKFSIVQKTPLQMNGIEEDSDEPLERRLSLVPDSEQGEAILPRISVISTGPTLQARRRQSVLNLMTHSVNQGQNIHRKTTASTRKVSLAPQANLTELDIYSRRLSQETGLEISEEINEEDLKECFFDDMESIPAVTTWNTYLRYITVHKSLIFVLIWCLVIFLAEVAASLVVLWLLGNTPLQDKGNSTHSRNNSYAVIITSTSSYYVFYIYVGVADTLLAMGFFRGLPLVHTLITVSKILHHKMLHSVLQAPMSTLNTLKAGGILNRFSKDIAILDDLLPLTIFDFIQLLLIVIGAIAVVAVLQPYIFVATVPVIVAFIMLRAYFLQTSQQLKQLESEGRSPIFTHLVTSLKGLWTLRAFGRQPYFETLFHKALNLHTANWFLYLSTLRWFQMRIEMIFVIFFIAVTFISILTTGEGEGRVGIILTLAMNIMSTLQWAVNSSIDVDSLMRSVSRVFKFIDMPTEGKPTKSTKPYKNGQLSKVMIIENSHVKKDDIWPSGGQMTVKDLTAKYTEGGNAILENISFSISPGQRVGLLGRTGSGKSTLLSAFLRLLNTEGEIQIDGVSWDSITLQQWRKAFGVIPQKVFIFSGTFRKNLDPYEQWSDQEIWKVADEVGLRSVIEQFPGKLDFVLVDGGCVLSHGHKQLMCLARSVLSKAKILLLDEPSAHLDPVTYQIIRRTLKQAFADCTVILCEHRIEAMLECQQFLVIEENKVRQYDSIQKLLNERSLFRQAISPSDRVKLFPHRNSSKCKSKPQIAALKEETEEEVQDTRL
Sequence of G551D‐CFTR (P13569 whole entry G551D): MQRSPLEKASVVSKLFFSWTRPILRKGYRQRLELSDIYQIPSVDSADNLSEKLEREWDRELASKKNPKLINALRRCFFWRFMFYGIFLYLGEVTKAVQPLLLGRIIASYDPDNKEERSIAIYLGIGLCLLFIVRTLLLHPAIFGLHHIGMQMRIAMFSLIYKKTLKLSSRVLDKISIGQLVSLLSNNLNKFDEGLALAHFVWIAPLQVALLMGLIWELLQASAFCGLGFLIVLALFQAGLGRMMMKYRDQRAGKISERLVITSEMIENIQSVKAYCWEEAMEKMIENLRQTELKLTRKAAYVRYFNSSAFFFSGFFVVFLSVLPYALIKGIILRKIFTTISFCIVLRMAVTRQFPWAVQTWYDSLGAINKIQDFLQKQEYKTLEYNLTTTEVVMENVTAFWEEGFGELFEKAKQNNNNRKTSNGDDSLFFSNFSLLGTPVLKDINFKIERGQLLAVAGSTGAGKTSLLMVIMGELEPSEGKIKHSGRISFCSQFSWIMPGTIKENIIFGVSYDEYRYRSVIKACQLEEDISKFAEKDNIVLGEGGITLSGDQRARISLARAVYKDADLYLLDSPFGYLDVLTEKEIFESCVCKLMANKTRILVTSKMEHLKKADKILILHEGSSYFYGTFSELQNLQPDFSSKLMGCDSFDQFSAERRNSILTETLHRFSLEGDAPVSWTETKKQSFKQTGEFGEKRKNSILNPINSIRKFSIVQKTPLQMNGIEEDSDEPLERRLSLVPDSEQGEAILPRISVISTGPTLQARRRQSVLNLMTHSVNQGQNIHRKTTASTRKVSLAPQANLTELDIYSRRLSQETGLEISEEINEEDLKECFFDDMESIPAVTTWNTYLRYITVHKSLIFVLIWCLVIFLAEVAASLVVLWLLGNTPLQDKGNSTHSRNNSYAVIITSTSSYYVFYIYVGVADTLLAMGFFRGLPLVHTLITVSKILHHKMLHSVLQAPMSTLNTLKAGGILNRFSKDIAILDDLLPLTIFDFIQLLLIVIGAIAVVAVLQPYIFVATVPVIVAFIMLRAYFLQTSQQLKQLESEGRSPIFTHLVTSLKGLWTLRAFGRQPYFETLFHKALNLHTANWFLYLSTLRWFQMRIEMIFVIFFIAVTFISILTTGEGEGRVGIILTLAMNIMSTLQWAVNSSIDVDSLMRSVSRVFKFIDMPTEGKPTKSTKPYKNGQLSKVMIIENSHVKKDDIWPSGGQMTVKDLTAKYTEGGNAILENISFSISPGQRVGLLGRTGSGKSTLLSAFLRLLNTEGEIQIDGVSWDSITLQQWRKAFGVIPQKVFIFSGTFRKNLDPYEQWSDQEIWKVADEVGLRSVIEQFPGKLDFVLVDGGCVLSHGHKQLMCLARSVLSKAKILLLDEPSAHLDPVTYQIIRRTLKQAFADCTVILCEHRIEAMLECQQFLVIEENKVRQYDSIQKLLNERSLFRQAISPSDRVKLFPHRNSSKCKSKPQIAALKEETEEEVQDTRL

In the case of `Cc1ncccc1CNC(=O)c1ccc2c(c1)CC[C@H]1C[C@](O)(CCC(F)(F)F)CC[C@]21Cc1ccccc1` (racemic) [CP‐628006, rac‐(4bR,7R,8aS)‐4b‐benzyl‐7‐hydroxy‐N‐((2‐methylpyridin‐3‐yl)methyl)‐7‐(3,3,3‐trifluoropropyl)‐4b,5,6,7,8,8a,9,10‐octahydrophenanthrene‐2‐carboxamide], on F508del‐CFTR, the EC50 was > 0.5 µM. On G551D‐CFTR, the EC50 was 5.13 µM and the Emax worked out at 72%.
In the case of `CC(C)(C)c1cc(C(C)(C)C)c(NC(=O)c2c[nH]c3ccccc3c2=O)cc1O` [ivacaftor, reference compound], the EC50 at F508del‐CFTR was 0.002 µM; at G551D‐CFTR, 0.82 µM. Further, the Emax on F508del‐CFTR (read-out: Maximal effect (%) (95% CI)) stood at 103%; on G551D‐CFTR, 70%.

Usually EC50 stands for the concentration needed to bring the measured effect to its halfway point.
